According to patent publication US20250179047A1, “5-[7-(3,4-DIHYDRO-1H-ISOQUINOLINE-2-CARBONYL)-1,2,3,4 TETRAHYDROISOQUINOLIN-6-YL]-1H-PYRROLE-3-CARBOXAMIDE DERIVATIVES, PHARMACEUTICAL COMPOSITIONS CONTAINING THEM AND THEIR USES AS PRO-APOPTOTIC AGENTS” (LES LABORATOIRES SERVIER, priority 2022, published 2025):

Columns and labels:
[1] = target: BCL2 WT (Homo sapiens (Human), UniProt P10415); experiment: TR-FRET competitive binding assay, BCL2 WT; conditions: Ki determined from IC50, read-out: TR_FRET EKI_Bcl2 WT
How it was run: (§1)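 Ki derived from IC50 (11-point dilution, 520/495 nm emission ratio) for displacing a fluorescein-labelled PUMA peptide (2 or 20 nM). Target was 0.5 nM E. coli-expressed Halo-tagged BCL2 (1-207) or BCLXL (2-196), terbium-labelled on Halo. Incubation 2 h at 23°C in pH 7.5 Hepes with 150 mM NaCl and 5% DMSO.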

[2] = target: BCL2 G101V (Homo sapiens, UniProt P10415, G101V); experiment: TR-FRET competitive binding assay, BCL2 G101V; conditions: BCL2 G101V; Ki determined from IC50; read-out: TR_FRET EKI_Bcl2 G101V
How it was run: as §1

[3] = system: BCL2 G101V; experiment: TR-FRET competitive binding assay, BCL2 G101V; parameters: species or system human; conditions: ratio Ki BCL2 G101V / Ki BCL2 WT
How it was run: as §1

[4] = target: BCL2 D103Y (Homo sapiens, UniProt P10415, D103Y); experiment: TR-FRET competitive binding assay, BCL2 D103Y; conditions: Ki determined from IC50, read-out: TR_FRET EKI_Bcl2 D103Y
How it was run: as §1

[5] = target: BCL2 F104I (Homo sapiens, UniProt P10415, F104I); experiment: TR-FRET competitive binding assay, BCL2 F104I; conditions: Ki determined from IC50, read-out: TR_FRET EKI_Bcl2 F104I
How it was run: as §1

[6] = target: BCL2 D111A (Homo sapiens, UniProt P10415, D111A); experiment: TR-FRET competitive binding assay, BCL2 D111A; conditions: Ki determined from IC50, read-out: TR_FRET EKI_Bcl2 D111A
How it was run: as §1

[7] = target: BCLXL WT (Homo sapiens (Human), UniProt Q07817); experiment: TR-FRET competitive binding assay, BCLXL WT; conditions: for Ki: BCLXL WT, Ki determined from IC50, read-out: TR_FRET EKI BclxL; for TR_FRET EKI BCLxL/WT selectivty ratio: ratio Ki BCLxL / Ki BCL2 WT
Sequence of BCLXL WT (Q07817 other isoform, or with tags, fused parts or gaps): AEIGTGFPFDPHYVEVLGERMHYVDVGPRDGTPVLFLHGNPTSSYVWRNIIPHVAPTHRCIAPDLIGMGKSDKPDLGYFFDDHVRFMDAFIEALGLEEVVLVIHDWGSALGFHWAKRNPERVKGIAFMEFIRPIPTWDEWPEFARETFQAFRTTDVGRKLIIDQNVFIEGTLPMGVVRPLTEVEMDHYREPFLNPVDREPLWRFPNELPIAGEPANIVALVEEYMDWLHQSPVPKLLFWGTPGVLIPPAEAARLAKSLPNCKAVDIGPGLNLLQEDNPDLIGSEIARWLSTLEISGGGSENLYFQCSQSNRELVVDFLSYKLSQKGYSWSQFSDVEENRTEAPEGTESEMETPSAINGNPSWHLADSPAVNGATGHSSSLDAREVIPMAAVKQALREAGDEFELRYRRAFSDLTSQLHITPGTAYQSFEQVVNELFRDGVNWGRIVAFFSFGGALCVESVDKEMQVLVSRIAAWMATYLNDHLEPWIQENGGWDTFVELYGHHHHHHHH
How it was run: as §1

[8] = system: KMS-12-PE Bcl-2 WT; experiment: In vitro cytotoxicity CellTiter-Glo 48 h, KMS-12-PE Bcl-2 WT; format: cell-based; conditions: Homo sapiens, KMS-12-PE, C50 = concentration needed to reach 50% of the cellular viability
How it was run: (§2)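 KMS-12-PE myeloma cells lentivirally transduced with Bcl-2 WT or G101V (TagRFP-sorted), exposed to compound 11-point dose-response for 48 h at 37 °C, 5% CO2. Viability read by CellTiter-Glo ATP luminescence; C50 is the concentration giving 50% cellular viability.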

[9] = system: KMS-12-PE Bcl-2 G101V; experiment: In vitro cytotoxicity CellTiter-Glo 48 h, KMS-12-PE Bcl-2 G101V; format: cell-based; conditions: for Ratio (G101V/WT): C50 KMS-12-PE Bcl-2 G101V over C50 KMS-12-PE Bcl-2 WT; for IC50: Homo sapiens, KMS-12-PE, 48 h, CellTiter-Glo, C50 = concentration needed to reach 50% of the cellular viability
How it was run: as §2

Ki [1]	Ki [2]	TR_FRET EKI G101V/WT selectivty ratio [3]	Ki [4]	Ki [5]	Ki [6]	Ki [7]	TR_FRET EKI BCLxL/WT selectivty ratio [7]	SMILES	IC50 [8]	Ratio (G101V/WT) [9]	IC50 [9]
0.15 nM	0.8 nM	5.2	0.59 nM	0.79 nM	0.4 nM	7.2 nM	48.0	COc1ncc(N(C(=O)c2cc(-c3cc4c(cc3C(=O)N3Cc5ccccc5C[C@H]3C)CN(C(=O)Cc3ccc(OCCN5CCOCC5)cc3F)CC4)n(C)c2C)c2ccc(O)cc2)cc1F [Example 111, 5-[2-(2-{2-fluoro-4-[2-(morpholin-4-yl)ethoxy]phenyl}acetyl)-7-{[(3R)-3-methyl-3,4-dihydro-1H-isoquinolin-2-yl]carbonyl}-3,4-dihydro-1H-isoquinolin-6-yl]-N-(5-fluoro-6-methoxypyridin-3-yl)-N-(4-hydroxyphenyl)-1,2-dimethylpyrrole-3-carboxamide]	0.0048 µM	8.18	0.0392 µM
0.05 nM	0.3 nM	5.2	0.15 nM	0.27 nM	0.13 nM	3.6 nM	69.2	Cc1cc(OCCN2CCOCC2)ccc1CC(=O)N1CCc2cc(-c3cc(C(=O)N(c4ccc(O)cc4)c4cc(C#N)n(C)c4C)c(C)n3C)c(C(=O)N3Cc4ccccc4C[C@H]3CN3CCCCC3)cc2C1 [Example 113, N-(5-cyano-1,2-dimethyl-1H-pyrrol-3-yl)-N-(4-hydroxyphenyl)-1,2-dimethyl-5-[2-(2-{2-methyl-4-[2-(morpholin-4-yl)ethoxy]phenyl}acetyl)-7-[(3S)-3-[(piperidin-1-yl)methyl]-1,2,3,4-tetrahydroisoquinoline-2-carbonyl]-1,2,3,4-tetrahydroisoquinolin-6-yl]-1H-pyrrole-3-carboxamide]	0.0063 µM	4.38	0.0278 µM
0.03 nM	0.2 nM	5.6	0.08 nM	0.3 nM	0.17 nM	2.8 nM	100.0	Cc1c(N(C(=O)c2cc(-c3cc4c(cc3C(=O)N3Cc5ccccc5C[C@H]3CN3CCCCC3)CN(C(=O)Cc3ccc(OCCN5CCC(F)CC5)cc3F)CC4)n(C)c2C)c2ccc(O)cc2)cc(C#N)n1C [Example 115, N-(5-cyano-1,2-dimethyl-1H-pyrrol-3-yl)-5-[2-(2-{2-fluoro-4-[2-(4-fluoropiperidin-1-yl)ethoxy]phenyl}acetyl)-7-[(3S)-3-[(piperidin-1-yl)methyl]-1,2,3,4-tetrahydroisoquinoline-2-carbonyl]-1,2,3,4-tetrahydroisoquinolin-6-yl]-N-(4-hydroxyphenyl)-1,2-dimethyl-1H-pyrrole-3-carboxamide]	0.0072 µM	6.05	0.0458 µM
0.05 nM	0.3 nM	5.3	0.11 nM	0.18 nM	0.11 nM	1.7 nM	36.2	Cc1c(N(C(=O)c2cc(-c3cc4c(cc3C(=O)N3Cc5ccccc5C[C@H]3CN3CCCCC3)CN(C(=O)Cc3ccc(OCCN5CCN(CCF)CC5)cc3F)CC4)n(C)c2C)c2ccc(O)cc2)cc(C#N)n1C [Example 117, N-(5-cyano-1,2-dimethyl-1H-pyrrol-3-yl)-5-{2-[2-(2-fluoro-4-{2-[4-(2-fluoroethyl)piperazin-1-yl]ethoxy}phenyl)acetyl]-7-[(3S)-3-[(piperidin-1-yl)methyl]-1,2,3,4-tetrahydroisoquinoline-2-carbonyl]-1,2,3,4-tetrahydroisoquinolin-6-yl}-N-(4-hydroxyphenyl)-1,2-dimethyl-1H-pyrrole-3-carboxamide]	0.0081 µM	4.09	0.033 µM
0.1 nM	0.5 nM	5.2	0.21 nM	0.37 nM	0.3 nM	5.3 nM	53.0	Cc1c(N(C(=O)c2cc(-c3cc4c(cc3C(=O)N3Cc5ccccc5C[C@H]3CN3C[C@H]5C[C@H]5C3)CN(C(=O)Cc3ccc(OCCN5CCOCC5)cc3F)CC4)n(C)c2C)c2ccc(O)cc2)cc(C#N)n1C [Example 120, 5-{7-[(3S)-3-{[cis-3-azabicyclo[3.1.0]hexan-3-yl]methyl}-1,2,3,4-tetrahydroisoquinoline-2-carbonyl]-2-(2-{2-fluoro-4-[2-(morpholin-4-yl)ethoxy]phenyl}acetyl)-1,2,3,4-tetrahydroisoquinolin-6-yl}-N-(5-cyano-1,2-dimethyl-1H-pyrrol-3-yl)-N-(4-hydroxyphenyl)-1,2-dimethyl-1H-pyrrole-3-carboxamide]	0.0032 µM	5.83	0.0186 µM
0.16 nM	0.5 nM	3.2	0.34 nM	0.56 nM	0.23 nM	6 nM	38.5	Cc1c(N(C(=O)c2cc(-c3cc4c(cc3C(=O)N3Cc5ccccc5C[C@H]3CN3CCCCC3)CN(C(=O)Cc3ccc(OCCN5CCOC(C)(C)C5)cc3)CC4)n(C)c2C)c2ccc(O)cc2)cc(C#N)n1C [Example 121, N-(5-cyano-1,2-dimethyl-1H-pyrrol-3-yl)-5-[2-(2-{4-[2-(2,2-dimethylmorpholin-4-yl)ethoxy]phenyl}acetyl)-7-[(3S)-3-[(piperidin-1-yl)methyl]-1,2,3,4-tetrahydroisoquinoline-2-carbonyl]-1,2,3,4-tetrahydroisoquinolin-6-yl]-N-(4-hydroxyphenyl)-1,2-dimethyl-1H-pyrrole-3-carboxamide]	0.0076 µM	5.25	0.0397 µM
0.07 nM	0.3 nM	4.2	0.28 nM	0.18 nM	0.13 nM	2.6 nM	35.1	Cc1c(N(C(=O)c2cc(-c3cc4c(cc3C(=O)N3Cc5ccccc5C[C@H]3CN3CCCC[C@H]3C)CN(C(=O)Cc3ccc(OCCN5CCOCC5)cc3F)CC4)n(C)c2C)c2ccc(O)cc2)cc(C#N)n1C [Example 123, N-(5-cyano-1,2-dimethyl-1H-pyrrol-3-yl)-5-[2-(2-{2-fluoro-4-[2-(morpholin-4-yl)ethoxy]phenyl}acetyl)-7-[(3S)-3-{[(2R)-2-methylpiperidin-1-yl]methyl}-1,2,3,4-tetrahydroisoquinoline-2-carbonyl]-1,2,3,4-tetrahydroisoquinolin-6-yl]-N-(4-hydroxyphenyl)-1,2-dimethyl-1H-pyrrole-3-carboxamide]	0.0038 µM	4.82	0.0185 µM
0.12 nM	0.7 nM	5.8	0.58 nM	0.34 nM	0.28 nM	5.8 nM	48.3	Cc1c(N(C(=O)c2cc(-c3cc4c(cc3C(=O)N3Cc5ccccc5C[C@H]3CN3CCC[C@@H](C)C3)CN(C(=O)Cc3ccc(OCCN5CCOCC5)cc3F)CC4)n(C)c2C)c2ccc(O)cc2)cc(C#N)n1C [Example 124, N-(5-cyano-1,2-dimethyl-1H-pyrrol-3-yl)-5-[2-(2-{2-fluoro-4-[2-(morpholin-4-yl)ethoxy]phenyl}acetyl)-7-[(3S)-3-{[(3R)-3-methylpiperidin-1-yl]methyl}-1,2,3,4-tetrahydroisoquinoline-2-carbonyl]-1,2,3,4-tetrahydroisoquinolin-6-yl]-N-(4-hydroxyphenyl)-1,2-dimethyl-1H-pyrrole-3-carboxamide]	0.0041 µM	5.62	0.0231 µM
